17 molecules from ChEMBL document CHEMBL4312011, “Synthesis and biological evaluation of triterpenoid thiazoles derived from betulonic acid, dihydrobetulonic acid, and ursonic acid” (Eur J Med Chem, 2020) can be followed below.

One test concerns MRC5. Nature of the test: Cytotoxicity against human MRC5 cells incubated for 72 hrs by MTS assay. The settings on record: MRC5, 72 h. Type of test: cell-based. A general note: Tetrazolium dyes change colour on reduction, which living cells bring about.
In another test the test system is U2OS. Nature of the test: Cytotoxicity against human U2OS cells incubated for 72 hrs by MTS assay. Type of test: functional, cell-based.
In a further test the test system is BJ. Nature of the test: Cytotoxicity against human BJ cells incubated for 72 hrs by MTS assay. It is filed as cell-based.
For a further test, the system named is A549. The experiment in a line: Cytotoxicity against human A549 cells incubated for 72 hrs by MTS assay. It is filed as functional, cell-based. The settings on record: A549, 72 h.
A further test concerns K562. The experiment in a line: Cytotoxicity against human K562 cells incubated for 72 hrs by MTS assay. The following applies: K562, 72 h. Type of test: functional, cell-based.
A short description of test [1]: Cytotoxicity against human K562-TAX cells incubated for 72 hrs by MTS assay. Type of test: functional, cell-based.
In test [2] the test system is HCT-116. Nature of the test: Cytotoxicity against p53 knockout human HCT116 cells incubated for 72 hrs by MTS assay. Type of test: functional, cell-based. The following applies: HCT-116, 72 h.
Test [3] concerns HCT-116. The experiment in a line: Cytotoxicity against human HCT116 cells incubated for 72 hrs by MTS assay. It is filed as functional, cell-based. The following applies: HCT-116, 72 h.
The next test relates to CCRF-CEM. Nature of the test: Cytotoxicity against human CCRF-CEM cells incubated for 72 hrs by MTS assay. It is filed as functional, cell-based.
Test [4] can be described thus: Cytotoxicity against human CEM-DNR-bulk cells incubated for 72 hrs by MTS assay. It is filed as functional, cell-based.

Turning to `C[C@H]1[C@H](C)CC[C@]2(C(=O)O)CC[C@]3(C)C(=CC[C@@H]4[C@@]5(C)Cc6sc(N7CCCCC7)nc6C(C)(C)[C@@H]5CC[C@]43C)[C@H]12`, the half-maximal inhibitory concentration (IC50) (with MRC5; in the test on U2OS; in the test with BJ; in the test on A549; with K562; in [1]) was more than 50 µM in each case. For the same molecule, the IC50 with HCT-116 [2] was more than 50 µM; in the test on HCT-116 [3], more than 50 µM; with CCRF-CEM, 22 µM; in test [4] it was more than 50 µM.
For the molecule `C=C(C)[C@@H]1CC[C@]2(C(=O)O)CC[C@]3(C)[C@H](CC[C@@H]4[C@@]5(C)Cc6sc(N(CC)CC)nc6C(C)(C)[C@@H]5CC[C@]43C)[C@@H]12`, the half-inhibitory concentration (IC50) with MRC5 was 23.3 µM; in the test with U2OS, more than 50 µM; in the test on BJ, more than 50 µM; in the test on A549 it was more than 50 µM; in the test with K562, 29.5 µM; in test [1] it was 46.8 µM. Besides, the IC50 is 31.6 µM in the test with HCT-116 [2], more than 50 µM in the test on HCT-116 [3], 8.5 µM in the test with CCRF-CEM and more than 50 µM in [4].
For `C[C@H]1[C@H](C)CC[C@]2(C(=O)O)CC[C@]3(C)C(=CC[C@@H]4[C@@]5(C)Cc6sc(N)nc6C(C)(C)[C@@H]5CC[C@]43C)[C@H]12`, the IC50 in the test with MRC5 is more than 50 µM; with U2OS it was 49.6 µM; in the test on BJ, more than 50 µM; in the test on A549, more than 50 µM; with K562 it was more than 50 µM; in test [1], 33.1 µM. The IC50 is more than 50 µM in the test on HCT-116 [2], 43 µM in the test with HCT-116 [3], 19 µM in the test on CCRF-CEM and 29.5 µM in test [4].
For `C[C@H]1[C@H](C)CC[C@]2(C(=O)O)CC[C@]3(C)C(=CC[C@@H]4[C@@]5(C)Cc6sc(N7CCN(C)CC7)nc6C(C)(C)[C@@H]5CC[C@]43C)[C@H]12`, the concentration for half-maximal inhibition (IC50) (in the test with MRC5; in the test on U2OS; in the test with BJ; with A549; in the test with K562; in test [1]) was more than 50 µM in each case. Further, the IC50 in the test on HCT-116 [2] was more than 50 µM; in the test with HCT-116 [3], more than 50 µM; in the test with CCRF-CEM, 47.6 µM; in test [4], more than 50 µM.
On to `C=C(C)[C@@H]1CC[C@]2(C(=O)O)CC[C@]3(C)[C@H](CC[C@@H]4[C@@]5(C)Cc6sc(N7CCCC7)nc6C(C)(C)[C@@H]5CC[C@]43C)[C@@H]12`, for which the IC50 with MRC5 was more than 50 µM; in the test with U2OS, more than 50 µM; in the test on BJ, more than 50 µM; in the test on A549, more than 50 µM; in the test with K562, more than 50 µM; in test [1] it was 22.9 µM. Also, the 50% inhibitory concentration (IC50) is more than 50 µM in the test on HCT-116 [2], more than 50 µM with HCT-116 [3], 7 µM in the test on CCRF-CEM and more than 50 µM in test [4].
Regarding `C[C@H]1[C@H](C)CC[C@]2(C(=O)O)CC[C@]3(C)C(=CC[C@@H]4[C@@]5(C)Cc6sc(N7CCCC7)nc6C(C)(C)[C@@H]5CC[C@]43C)[C@H]12`, the half-maximal inhibitory concentration (IC50) in the test on MRC5 is more than 50 µM; in the test on U2OS, more than 50 µM; with BJ, more than 50 µM; in the test with A549, more than 50 µM; in the test with K562, more than 50 µM; in [1], 37.5 µM. For the same molecule, the IC50 in the test on HCT-116 [2] was more than 50 µM; with HCT-116 [3] it was 39 µM; in the test on CCRF-CEM, 10.7 µM; in test [4], 39 µM.
Regarding `C=C(C)[C@@H]1CC[C@]2(C(=O)O)CC[C@]3(C)[C@H](CC[C@@H]4[C@@]5(C)Cc6sc(NCc7ccccc7)nc6C(C)(C)[C@@H]5CC[C@]43C)[C@@H]12`, the IC50 in the test with MRC5 was more than 50 µM; in the test with U2OS it was 47.5 µM; with BJ, more than 50 µM; in the test with A549, more than 50 µM; in the test with K562, more than 50 µM; in [1], more than 50 µM. The IC50 in the test on HCT-116 [2] was more than 50 µM; with HCT-116 [3], more than 50 µM; in the test with CCRF-CEM, 3.7 µM; in test [4] it was more than 50 µM.
Take `CC1(C)CC[C@]2(C(=O)O)CC[C@]3(C)C(=CC[C@@H]4[C@@]5(C)CCC(=O)C(C)(C)[C@@H]5CC[C@]43C)[C@@H]2C1` [OLEANONIC ACID]: the 50% inhibitory concentration (IC50) was more than 50 µM in the test on MRC5; 48.5 µM in the test on U2OS; more than 50 µM in the test with BJ; 49.5 µM in the test on A549; more than 50 µM with K562; 21.5 µM in test [1]. Moreover, the half-maximal inhibitory concentration (IC50) in the test on HCT-116 [2] is more than 50 µM; in the test on HCT-116 [3], 45.1 µM; with CCRF-CEM it was 15.1 µM; in test [4] it was 17.4 µM.
On to `C=C(C)[C@@H]1CC[C@]2(C(=O)O)CC[C@]3(C)[C@H](CC[C@@H]4[C@@]5(C)Cc6sc(N7CCCCC7)nc6C(C)(C)[C@@H]5CC[C@]43C)[C@@H]12`, for which the IC50 in the test on MRC5 is 50 µM; with U2OS, more than 50 µM; with BJ it was more than 50 µM; with A549 it was more than 50 µM; in the test on K562 it was 35.9 µM; in test [1] it was more than 50 µM. Further, the IC50 is more than 50 µM with HCT-116 [2], more than 50 µM with HCT-116 [3], 9.3 µM with CCRF-CEM and more than 50 µM in test [4].
On to `C[C@H]1[C@H](C)CC[C@]2(C(=O)O)CC[C@]3(C)C(=CC[C@@H]4[C@@]5(C)Cc6sc(N7CCOCC7)nc6C(C)(C)[C@@H]5CC[C@]43C)[C@H]12`, for which the half-maximal inhibitory concentration (IC50) with MRC5 is more than 50 µM; in the test with U2OS it was 29.1 µM; in the test with BJ, more than 50 µM; with A549, 28.8 µM; in the test on K562, 8.6 µM; in test [1], 29.7 µM. Further, the 50% inhibitory concentration (IC50) in the test with HCT-116 [2] is 37.9 µM; in the test with HCT-116 [3] it was 23.6 µM; in the test with CCRF-CEM it was 8.5 µM; in [4] it was 23.8 µM.
Consider `CCN(CC)c1nc2c(s1)C[C@]1(C)[C@H]3CC=C4[C@@H]5[C@@H](C)[C@H](C)CC[C@]5(C(=O)O)CC[C@@]4(C)[C@]3(C)CC[C@H]1C2(C)C`, for which the IC50 (in the test with MRC5; with U2OS; with BJ; in the test with A549; in the test with K562; in test [1]) was more than 50 µM each time. The IC50 in the test on HCT-116 [2] was more than 50 µM; in the test with HCT-116 [3] it was 41.3 µM; with CCRF-CEM, 26.6 µM; in [4], more than 50 µM.
As to `CCN(CC)c1nc2c(s1)C[C@]1(C)[C@H]3CC[C@@H]4[C@H]5[C@H](C(C)C)CC[C@]5(C(=O)O)CC[C@@]4(C)[C@]3(C)CC[C@H]1C2(C)C`, the IC50 in the test with MRC5 was more than 50 µM; in the test on U2OS, 45.8 µM; in the test on BJ it was more than 50 µM; in the test on A549, more than 50 µM; in the test with K562, 16.3 µM; in [1], more than 50 µM. Besides, the IC50 in the test with HCT-116 [2] is more than 50 µM; with HCT-116 [3] it was more than 50 µM; in the test with CCRF-CEM, 19.7 µM; in test [4], more than 50 µM.
Regarding `C=C(C)[C@@H]1CC[C@]2(C(=O)O)CC[C@]3(C)[C@H](CC[C@@H]4[C@@]5(C)CCC(=O)C(C)(C)[C@@H]5CC[C@]43C)[C@@H]12` [BETUNOLIC ACID], the 50% inhibitory concentration (IC50) in the test with MRC5 turned out to be 29.5 µM; in the test with U2OS, 38 µM; in the test on BJ, 39.5 µM; in the test on A549 it was 40 µM; with K562, 13.6 µM; in [1], 14.9 µM. Also, the IC50 is 49.4 µM with HCT-116 [2], 38.1 µM with HCT-116 [3], 8.4 µM in the test with CCRF-CEM and 11.2 µM in test [4].
For `C[C@H]1[C@H](C)CC[C@]2(C(=O)O)CC[C@]3(C)C(=CC[C@@H]4[C@@]5(C)Cc6sc(NC7CCCCC7)nc6C(C)(C)[C@@H]5CC[C@]43C)[C@H]12`, the concentration for half-maximal inhibition (IC50) (with MRC5; with U2OS; in the test with BJ; with A549; with K562; in [1]) was more than 50 µM each time. The 50% inhibitory concentration (IC50) was more than 50 µM in the test with HCT-116 [2], more than 50 µM in the test with HCT-116 [3], 19.4 µM in the test on CCRF-CEM and more than 50 µM in test [4].
For `C=C(C)[C@@H]1CC[C@]2(C(=O)O)CC[C@]3(C)[C@H](CC[C@@H]4[C@@]5(C)Cc6sc(N7CCOCC7)nc6C(C)(C)[C@@H]5CC[C@]43C)[C@@H]12`, the IC50 in the test with MRC5 was more than 50 µM; with U2OS, more than 50 µM; in the test with BJ it was more than 50 µM; in the test with A549, more than 50 µM; in the test on K562, 11.2 µM; in test [1] it was more than 50 µM. Further, the concentration for half-maximal inhibition (IC50) in the test on HCT-116 [2] was more than 50 µM; with HCT-116 [3], more than 50 µM; in the test on CCRF-CEM, 7.2 µM; in [4], more than 50 µM.
Turning to `C[C@H]1[C@H](C)CC[C@]2(C(=O)O)CC[C@]3(C)C(=CC[C@@H]4[C@@]5(C)CCC(=O)C(C)(C)[C@@H]5CC[C@]43C)[C@H]12` [URSONIC ACID], the half-inhibitory concentration (IC50) in the test on MRC5 was more than 50 µM; in the test with U2OS it was more than 50 µM; with BJ, more than 50 µM; in the test on A549 it was more than 50 µM; in the test on K562 it was more than 50 µM; in test [1], 35.5 µM. Also, the IC50 is more than 50 µM in the test with HCT-116 [2], 49.7 µM with HCT-116 [3], 10.4 µM in the test with CCRF-CEM and 34 µM in test [4].
For `CC(C)[C@@H]1CC[C@]2(C(=O)O)CC[C@]3(C)[C@H](CC[C@@H]4[C@@]5(C)CCC(=O)C(C)(C)[C@@H]5CC[C@]43C)[C@@H]12` [DIHYDROBETULONIC ACID], the IC50 with MRC5 was more than 50 µM; with U2OS it was 27.5 µM; in the test on BJ, more than 50 µM; in the test with A549, 22.2 µM; in the test on K562 it was 11.6 µM; in test [1] it was 11.1 µM. Further, the IC50 with HCT-116 [2] amounted to 36.4 µM; in the test with HCT-116 [3], 33.5 µM; in the test with CCRF-CEM it was 6.2 µM; in test [4], 48.3 µM.

In general, IC50 refers to the concentration needed to halve the response being measured. Higher therefore signals weaker potency.
